Assay results published in patent publication US11896581B2, “Compositions and methods for providing health benefits in an animal” (Société des Produits Nestlé S.A., priority 2020, dated 2024).

Test system: H4IIE cells
Assay: Cellular bioassay of hepatic glucose production (gluconeogenesis) induced by sodium pyruvate and lactate (SLP)
Assay type: cell-based
Conditions: for glucose production relative to SLP condition (100%): 6 h incubation
Method: A cellular bioassay was established according to a method described by Okamoto et al. (Establishment and characterization of a novel method for evaluating gluconeogenesis using hepatic cell lines, H4IIE and HepG2, Archives of Biochemistry and Biophysics, Volume 491, Issues 1-2, November 2009, Pages 46-52; Takashi Okamoto, Naohide Kanemoto, Takashi Ban, Toshiki Sudo, Keisuke Nagano, Ichiro Niki.) (FIG. 1). Briefly, H4IIE cells pre-cultured at high density were seeded into a 12-well plate at a density of 5.714×10^5 cells/cm^2 and cultured for 24 h in EMEM supplemented with 10% FCS. […] The assay was started by switching the medium for KHH Buffer in the presence of gluconeogenesis-inducing substrates (1 mM sodium pyruvate and 10 mM lactate). Compounds were added at different concentrations and tested in duplicate. 10 mM of metformin was included as a positive control for inhibition of gluconeogenesis. The conditioned medium was collected after 6 h of incubation (stored at −80° C.). The cells remaining in the wells are washed once with PBS and then stored dry at −20° C.). The medium is used to assay glucose content using a fluorometric glucose assay kit. Frozen cells' proteins are first extracted and then quantified, to normalize the glucose results. Components were tested in at least two independent experiments performed at different cell passages. The selected compounds (Histidine and Ferulic acid) were tested individually to assess their inhibitory effect on hepatic glucose production (Table 1) using a range of concentrations determined from previous internal knowledge and literature. Additional experiments on individual compounds were conducted: the amino acid arginine and leucine to test the specificity of histidine effects against other amino acids. In addition, interactions and synergies between compounds were further explored using combined formulations, for which detailed information is provided in Table 1. For data analysis described herein, results are expressed as relative glucose produced in every treatment compared to the glucose produced using SLP treatment. […] Independent experiments were performed, using different cells passages in each condition. […] Sodium Pyruvate (1 mM) and Sodium Lactate (10 mM) was used to induce gluconeogenesis in H4IIE cells.

`N=C(N)NCCC[C@H](N)C(=O)O` [Arginine, arginine, reference compound] was tested, and the “glucose production relative to SLP condition (100%)” value (single compound at 0.2 mM) was 81.44%±2.72, the “glucose production relative to SLP condition (100%)” value (single compound at 2 mM) was 65.01%±11.52 and the “glucose production relative to SLP condition (100%)” value (single compound at 20 mM) was 45.40%±3.57.
With `CN(C)C(=N)N=C(N)N` [metformin, reference compound] the “glucose production relative to SLP condition (100%)” value (10 mM, positive control) was 9.71%±4.2.
In the case of `COc1cc(/C=C/C(=O)O)ccc1O` [Ferulic acid, ferulic acid], the “inhibition on doubling the dose” value (dose doubled from 0.5 μM to 1 μM) is reported as 30%, the “inhibiting effect of doubling the dose” value (dose doubled from 1 μM to 2 μM) is reported as 40% and the “inhibition on doubling the dose” value (dose doubled from 2 μM to 4 μM) is reported as 32%. For the same compound, the “glucose production relative to SLP condition (100%)” value (single compound at 0.5 μM) was 85.67%±3.81, the “glucose production relative to SLP condition (100%)” value (single compound at 0.8 μM) was 81.51%±11.70 and the “glucose production relative to SLP condition (100%)” value (single compound at 1 μM) was 61.38%±15.82. The “glucose production relative to SLP condition (100%)” value (single compound at 2 μM) was 36.57%±6.02 and the “glucose production relative to SLP condition (100%)” value (single compound at 4 μM) was 25.08%±5.03.
In the case of `N[C@@H](Cc1c[nH]cn1)C(=O)O` [histidine], the “inhibiting effect of doubling the dose” value (dose doubled from 0.5 mM to 1 mM) is reported as 52%, the “inhibiting effect of doubling the dose” value (dose doubled from 1 mM to 2 mM) is reported as 25% and the “glucose production relative to SLP condition (100%)” value (single compound at 0.2 mM) is reported as 93.7%±10.85. The “glucose production relative to SLP condition (100%)” value (single compound at 0.5 mM) was 87.00%±17.2, the “glucose production relative to SLP condition (100%)” value (single compound at 1 mM) was 52.67%±4.16 and the “glucose production relative to SLP condition (100%)” value (single compound at 2 mM) was 39.19%±7.44. The “glucose production relative to SLP condition (100%)” value (single compound at 20 mM) was 8.39%±2.49.
For `CC(C)C[C@H](N)C(=O)O` [Leucine, leucine, reference compound], the “glucose production relative to SLP condition (100%)” value (single compound at 0.2 mM) was 84.69%±1.05, the “glucose production relative to SLP condition (100%)” value (single compound at 2 mM) was 75.37%±0.36 and the “glucose production relative to SLP condition (100%)” value (single compound at 20 mM) was 83.76%±7.30.
